Experimental data from article PMC5218480 (PLoS ONE, 2017).

Test system: MV-4-11 cells
Test: Gene expression microarray analysis (Affymetrix PrimeView) and GSEA
Type: cell-based, human
Parameters: RFU PODN (11730768_x_at) / Fold change /veh PODN (11730768_x_at) / RFU LINC00158 (11744669_a_at) / Fold change /veh LINC00158 (11744669_a_at) / RFU DUSP10 (11751237_a_at) / Fold change /veh DUSP10 (11751237_a_at) / RFU ID3 (11757404_x_at) / Fold change /veh ID3 (11757404_x_at) / RFU PLEKHG5 (11737974_s_at) / Fold change /veh PLEKHG5 (11737974_s_at) / RFU LRRC4B (11730491_at) / Fold change /veh LRRC4B (11730491_at) / RFU GIMAP4 (11747438_a_at) / Fold change /veh GIMAP4 (11747438_a_at) / RFU KRT8 (11758183_x_at) / Fold change /veh KRT8 (11758183_x_at) / RFU CNN1 (11734310_a_at) / Fold change /veh CNN1 (11734310_a_at) / RFU VPS37D (11726825_at) / Fold change /veh VPS37D (11726825_at) / RFU C10orf10 (11716522_x_at) / Fold change /veh C10orf10 (11716522_x_at) / RFU KIR2DL2 /// KIR2DL4 /// KIR2DL5A /// KIR2DL5B /// KIR2DS1 /// KIR2DS2 /// KIR2DS3 /// KIR2DS4 /// KIR3DL3 /// KIR3DL3 /// KIR3DS1 (11738374_at) / Fold change /veh KIR2DL2 /// KIR2DL4 /// KIR2DL5A /// KIR2DL5B /// KIR2DS1 /// KIR2DS2 /// KIR2DS3 /// KIR2DS4 /// KIR3DL3 /// KIR3DL3 /// KIR3DS1 (11738374_at) / RFU C1QL1 (11718748_at) / Fold change /veh C1QL1 (11718748_at) / RFU TMPRSS4 (11747572_a_at) / Fold change /veh TMPRSS4 (11747572_a_at) / RFU HAMP (11756126_x_at) / Fold change /veh HAMP (11756126_x_at) / RFU RNFT2 (11725882_a_at) / Fold change /veh RNFT2 (11725882_a_at) / RFU NR4A2 (11747474_a_at) / Fold change /veh NR4A2 (11747474_a_at) / RFU ABCC12 (11746883_a_at) / Fold change /veh ABCC12 (11746883_a_at) / RFU TMEM136 (11760407_x_at) / Fold change /veh TMEM136 (11760407_x_at) / RFU CLDN22 /// WWC2 (11732394_at) / Fold change /veh CLDN22 /// WWC2 (11732394_at) / RFU HLA-DPB1 (11760878_x_at) / Fold change /veh HLA-DPB1 (11760878_x_at) / RFU SPINT1 (11716480_a_at) / Fold change /veh SPINT1 (11716480_a_at) / RFU GAP43 (11754022_s_at) / Fold change /veh GAP43 (11754022_s_at) / RFU A4GNT (11735810_at) / Fold change /veh A4GNT (11735810_at) / RFU PRB3 (11715151_x_at) / Fold change /veh PRB3 (11715151_x_at) / RFU TUBB4B (11761932_at) / Fold change /veh TUBB4B (11761932_at) / RFU CAPN14 (11732068_a_at) / Fold change /veh CAPN14 (11732068_a_at) / RFU TMCC2 (11721928_a_at) / Fold change /veh TMCC2 (11721928_a_at) / RFU IRGQ (11745062_a_at) / Fold change /veh IRGQ (11745062_a_at) / RFU FAM174B (11720279_a_at) / Fold change /veh FAM174B (11720279_a_at) / RFU TMPRSS4 (11748680_a_at) / Fold change /veh TMPRSS4 (11748680_a_at) / RFU FAM212B (11763350_a_at) / Fold change /veh FAM212B (11763350_a_at) / RFU PLEKHG5 (11743358_a_at) / Fold change /veh PLEKHG5 (11743358_a_at) / RFU ZSCAN30 (11745921_a_at) / Fold change /veh ZSCAN30 (11745921_a_at) / RFU CMKLR1 (11741424_a_at) / Fold change /veh CMKLR1 (11741424_a_at) / RFU LOC101060620 /// MAPK8IP1 (11723275_at) / Fold change /veh LOC101060620 /// MAPK8IP1 (11723275_at) / RFU SPTSSB (11747773_x_at) / Fold change /veh SPTSSB (11747773_x_at) / RFU PRSS12 (11739890_at) / Fold change /veh PRSS12 (11739890_at) / RFU BIN1 (11741810_x_at) / Fold change /veh BIN1 (11741810_x_at) / RFU WNT11 (11732464_a_at) / Fold change /veh WNT11 (11732464_a_at) / RFU C10orf10 (11716521_a_at) / Fold change /veh C10orf10 (11716521_a_at) / RFU C5orf56 (11738089_at) / Fold change /veh C5orf56 (11738089_at) / RFU CYB561 (11721691_x_at) / Fold change /veh CYB561 (11721691_x_at) / RFU ANKRD19P (11752326_a_at) / Fold change /veh ANKRD19P (11752326_a_at) / RFU OR2T12 /// OR2T33 /// OR2T8 (11738714_s_at) / Fold change /veh OR2T12 /// OR2T33 /// OR2T8 (11738714_s_at) / RFU VCAN (11748164_a_at) / Fold change /veh VCAN (11748164_a_at) / RFU JSRP1 (11732532_at) / Fold change /veh JSRP1 (11732532_at) / RFU KRTAP10-11 (11738290_x_at) / Fold change /veh KRTAP10-11 (11738290_x_at) / RFU MYO3A (11730013_a_at) / Fold change /veh MYO3A (11730013_a_at) / RFU EBF3 (11725865_a_at) / Fold change /veh EBF3 (11725865_a_at) / RFU CAMK2N1 (11719241_x_at) / Fold change /veh CAMK2N1 (11719241_x_at) / RFU C5orf56 (11738088_a_at) / Fold change /veh C5orf56 (11738088_a_at) / RFU OLFML3 (11715873_a_at) / Fold change /veh OLFML3 (11715873_a_at) / RFU LOC100653217 /// NTM (11731650_a_at) / Fold change /veh LOC100653217 /// NTM (11731650_a_at) / RFU MAPK11 (11762145_a_at) / Fold change /veh MAPK11 (11762145_a_at) / RFU FIZ1 (11724087_x_at) / Fold change /veh FIZ1 (11724087_x_at) / RFU OASL (11726364_x_at) / Fold change /veh OASL (11726364_x_at) / RFU SOX15 (11748057_x_at) / Fold change /veh SOX15 (11748057_x_at) / RFU CD79A (11719716_a_at) / Fold change /veh CD79A (11719716_a_at) / RFU HIST1H1D (11736915_at) / Fold change /veh HIST1H1D (11736915_at) / RFU CASKIN2 (11723855_a_at) / Fold change /veh CASKIN2 (11723855_a_at) / RFU LOC730098 (11760151_x_at) / Fold change /veh LOC730098 (11760151_x_at) / RFU OR4N2 (11742367_at) / Fold change /veh OR4N2 (11742367_at) / RFU PRRT2 (11749266_a_at) / Fold change /veh PRRT2 (11749266_a_at) / RFU SNX32 (11753110_a_at) / Fold change /veh SNX32 (11753110_a_at) / RFU CDHR5 (11726645_a_at) / Fold change /veh CDHR5 (11726645_a_at) / RFU RCAN1 (11760418_a_at) / Fold change /veh RCAN1 (11760418_a_at) / RFU FAM167A (11723789_a_at) / Fold change /veh FAM167A (11723789_a_at) / RFU FAM26E (11764081_at) / Fold change /veh FAM26E (11764081_at) / RFU ISYNA1 (11749810_s_at) / Fold change /veh ISYNA1 (11749810_s_at) / RFU ACY1 (11761880_at) / Fold change /veh ACY1 (11761880_at) / RFU 11764098_at / Fold change /veh 11764098_at / RFU SAMD14 (11745864_x_at) / Fold change /veh SAMD14 (11745864_x_at) / RFU NPB (11741838_a_at) / Fold change /veh NPB (11741838_a_at) / RFU TMPRSS6 (11731388_a_at) / Fold change /veh TMPRSS6 (11731388_a_at) / RFU KRTAP10-2 (11738614_at) / Fold change /veh KRTAP10-2 (11738614_at) / RFU ARHGAP8 /// PRR5-ARHGAP8 (11727945_x_at) / Fold change /veh ARHGAP8 /// PRR5-ARHGAP8 (11727945_x_at) / RFU KRTAP5-7 /// NADSYN1 (11734609_at) / Fold change /veh KRTAP5-7 /// NADSYN1 (11734609_at) / RFU RASL12 (11751679_a_at) / Fold change /veh RASL12 (11751679_a_at) / RFU CDKN2B (11736163_a_at) / Fold change /veh CDKN2B (11736163_a_at) / RFU PRF1 (11729649_at) / Fold change /veh PRF1 (11729649_at) / RFU, ZNF638 /// ZNF638-IT1 / Fold change vs veh, ZNF638 /// ZNF638-IT1 / RFU, PANK3 / Fold change vs veh, PANK3 / RFU, SH3YL1 / Fold change vs veh, SH3YL1 / RFU, ZEB2 / Fold change vs veh, ZEB2 / RFU, NRIP1 / Fold change vs veh, NRIP1 / RFU, PTTG1IP / Fold change vs veh, PTTG1IP / RFU, CAPN2 / Fold change vs veh, CAPN2 / RFU, MED14 / Fold change vs veh, MED14 / RFU, SNORA58 / Fold change vs veh, SNORA58 / RFU, C1orf63 / Fold change vs veh, C1orf63 / RFU, LRRFIP1 / Fold change vs veh, LRRFIP1 / RFU, NDUFAF7 / Fold change vs veh, NDUFAF7 / RFU, SLC12A2 / Fold change vs veh, SLC12A2 / RFU, IBTK / Fold change vs veh, IBTK / RFU, ESF1 / Fold change vs veh, ESF1 / Fold change vs veh, TMEM50B / RFU, TAOK1 / Fold change vs veh, TAOK1 / RFU, ACBD3 / Fold change vs veh, ACBD3 / RFU, TMA16 / Fold change vs veh, TMA16 / RFU, RWDD3 / Fold change vs veh, RWDD3 / RFU, BCAT1 / Fold change vs veh, BCAT1 / RFU, EDEM3 / Fold change vs veh, EDEM3 / RFU, TMEM33 / Fold change vs veh, TMEM33 / RFU, WDR75 / Fold change vs veh, WDR75 / RFU, AHCTF1 / Fold change vs veh, AHCTF1 / RFU, TFRC / Fold change vs veh, TFRC / RFU, ZDHHC17 / Fold change vs veh, ZDHHC17 / RFU, NOM1 / Fold change vs veh, NOM1 / RFU, ARL8B / Fold change vs veh, ARL8B / RFU, ZBTB11 / Fold change vs veh, ZBTB11 / RFU, TAMM41 / Fold change vs veh, TAMM41 / RFU, KIAA1704 /// LOC100996395 / Fold change vs veh, KIAA1704 /// LOC100996395 / RFU, ING1 / Fold change vs veh, ING1 / RFU, TRMT61B / Fold change vs veh, TRMT61B / RFU, FUBP3 / Fold change vs veh, FUBP3 / RFU, TP53 / Fold change vs veh, TP53 / RFU, TNKS2 / Fold change vs veh, TNKS2 / RFU, ZFP14 / Fold change vs veh, ZFP14 / RFU, ACTR2 / Fold change vs veh, ACTR2 / RFU, PPP3R1 / Fold change vs veh, PPP3R1 / RFU, PIK3R1 / Fold change vs veh, PIK3R1 / RFU, HNRNPA1 / Fold change vs veh, HNRNPA1 / RFU, RNF170 / Fold change vs veh, RNF170 / RFU, ZNF28 / Fold change vs veh, ZNF28 / RFU, RNGTT / Fold change vs veh, RNGTT / RFU, OGT / Fold change vs veh, OGT / RFU, BRD1 / Fold change vs veh, BRD1 / RFU, MARS / Fold change vs veh, MARS / RFU, ZNF655 / Fold change vs veh, ZNF655 / RFU, FAHD1 / Fold change vs veh, FAHD1 / RFU, BDP1 / Fold change vs veh, BDP1 / RFU, LRRCC1 / Fold change vs veh, LRRCC1 / RFU, ARID1A / Fold change vs veh, ARID1A / RFU, ZNF146 / Fold change vs veh, ZNF146 / RFU, ZNF330 / Fold change vs veh, ZNF330 / RFU, GPN3 / Fold change vs veh, GPN3 / RFU, C9orf123 / Fold change vs veh, C9orf123 / RFU, N4BP2L2 / Fold change vs veh, N4BP2L2 / RFU, ARFIP1 / Fold change vs veh, ARFIP1 / RFU, FAM179B / Fold change vs veh, FAM179B / RFU, BCL10 / Fold change vs veh, BCL10 / RFU, UHRF1BP1L / Fold change vs veh, UHRF1BP1L / RFU, BET1 / Fold change vs veh, BET1 / RFU, CNOT2 / Fold change vs veh, CNOT2 / RFU, ZNF268 / Fold change vs veh, ZNF268 / Fold change vs veh, ZNF507 / RFU, DGCR2 / Fold change vs veh, DGCR2 / RFU, WDSUB1 / Fold change vs veh, WDSUB1 / Fold change vs veh, HSP90B1 /// MIR3652 / RFU, ADSS / Fold change vs veh, ADSS / RFU, GK / Fold change vs veh, GK / RFU, ZNF148 / Fold change vs veh, ZNF148 / RFU, TAF9 / Fold change vs veh, TAF9 / RFU, SLC1A5 / Fold change vs veh, SLC1A5 / RFU, SLMO2 / Fold change vs veh, SLMO2 / RFU, ABCC4 / Fold change vs veh, ABCC4 / RFU, LOC101060439 /// RAP1B / Fold change vs veh, LOC101060439 /// RAP1B / RFU, RFX7 / Fold change vs veh, RFX7 / RFU, GTPBP10 / Fold change vs veh, GTPBP10 / RFU, CNEP1R1 / Fold change vs veh, CNEP1R1 / RFU, BIVM-ERCC5 /// ERCC5 / Fold change vs veh, BIVM-ERCC5 /// ERCC5 / RFU, ILF3 / Fold change vs veh, ILF3 / RFU 11762660_at / Fold change /veh 11762660_at / RFU VCAN (11757783_s_at) / Fold change /veh VCAN (11757783_s_at) / RFU DDX43 (11728927_at) / Fold change /veh DDX43 (11728927_at) / RFU KRT8 (11758188_x_at) / Fold change /veh KRT8 (11758188_x_at) / RFU NKD1 (11759106_at) / Fold change /veh NKD1 (11759106_at) / RFU SRD5A1 (11742802_a_at) / Fold change /veh SRD5A1 (11742802_a_at) / RFU TPSAB1 /// TPSB2 (11721975_s_at) / Fold change /veh TPSAB1 /// TPSB2 (11721975_s_at) / RFU GSTM3 (11746129_a_at) / Fold change /veh GSTM3 (11746129_a_at) / RFU IL23R (11737362_x_at) / Fold change /veh IL23R (11737362_x_at) / RFU TMEM51 (11727254_a_at) / Fold change /veh TMEM51 (11727254_a_at) / RFU PIWIL2 (11732686_x_at) / Fold change /veh PIWIL2 (11732686_x_at) / RFU ORM1 (11744905_x_at) / Fold change /veh ORM1 (11744905_x_at) / RFU CCDC152 (11743942_at) / Fold change /veh CCDC152 (11743942_at) / RFU ECM1 (11717891_a_at) / Fold change /veh ECM1 (11717891_a_at) / RFU IL23R (11748794_a_at) / Fold change /veh IL23R (11748794_a_at) / RFU TNFAIP8L3 (11732012_x_at) / Fold change /veh TNFAIP8L3 (11732012_x_at) / RFU MBOAT4 (11741988_at) / Fold change /veh MBOAT4 (11741988_at) / RFU 11764193_at / Fold change /veh 11764193_at / RFU TMEM53 (11763286_at) / Fold change /veh TMEM53 (11763286_at) / RFU MAGEB2 (11727129_at) / Fold change /veh MAGEB2 (11727129_at) / RFU TMEM200A (11744735_a_at) / Fold change /veh TMEM200A (11744735_a_at) / RFU CCDC152 (11751479_a_at) / Fold change /veh CCDC152 (11751479_a_at) / RFU FAM211A (11726209_a_at) / Fold change /veh FAM211A (11726209_a_at) / RFU RGS16 (11746705_a_at) / Fold change /veh RGS16 (11746705_a_at) / RFU VCAN (11755009_s_at) / Fold change /veh VCAN (11755009_s_at) / RFU RHOB (11743442_s_at) / Fold change /veh RHOB (11743442_s_at) / RFU RGS16 (11720943_a_at) / Fold change /veh RGS16 (11720943_a_at) / RFU RGS16 (11720944_at) / Fold change /veh RGS16 (11720944_at) / RFU, VPS4B / Fold change vs veh, VPS4B / RFU, CREB1 / Fold change vs veh, CREB1 / RFU, DNAJC13 / Fold change vs veh, DNAJC13 / RFU, GNAQ / Fold change vs veh, GNAQ / RFU, CDK5R1 / Fold change vs veh, CDK5R1 / RFU, ZRANB3 / Fold change vs veh, ZRANB3 / RFU, CUL4A / Fold change vs veh, CUL4A / RFU, CCNY / Fold change vs veh, CCNY / RFU, UFL1 / Fold change vs veh, UFL1 / RFU, COG3 / Fold change vs veh, COG3 / RFU, DIAPH2 / Fold change vs veh, DIAPH2 / RFU, SKA2 / Fold change vs veh, SKA2 / RFU, AFF3 / Fold change vs veh, AFF3 / RFU, LMF1 / Fold change vs veh, LMF1 / RFU, IPO11 / Fold change vs veh, IPO11 / RFU, DFFB / Fold change vs veh, DFFB / RFU, FOXP1 / Fold change vs veh, FOXP1 / RFU, CARD8 / Fold change vs veh, CARD8 / RFU, STRN3 / Fold change vs veh, STRN3 / RFU, ADK / Fold change vs veh, ADK / RFU, RASSF2 / Fold change vs veh, RASSF2 / RFU, WIPF1 / Fold change vs veh, WIPF1 / RFU, LARP1B / Fold change vs veh, LARP1B / RFU, RASA1 / Fold change vs veh, RASA1 / RFU, RB1 / Fold change vs veh, RB1 / RFU, PPFIA1 / Fold change vs veh, PPFIA1 / RFU, MAT2A / Fold change vs veh, MAT2A / RFU, CCT5 / Fold change vs veh, CCT5 / RFU, WDR92 / Fold change vs veh, WDR92 / RFU, CUX1 / Fold change vs veh, CUX1 / RFU, TTC7A / Fold change vs veh, TTC7A / RFU, TMEM135 / Fold change vs veh, TMEM135 / RFU, DEPTOR / Fold change vs veh, DEPTOR / RFU, CPM / Fold change vs veh, CPM / RFU, DNAJB6 / Fold change vs veh, DNAJB6 / RFU, CACNA2D3 / Fold change vs veh, CACNA2D3 / RFU, DTX4 / Fold change vs veh, DTX4 / RFU, TFCP2 / Fold change vs veh, TFCP2 / RFU, GMCL1 /// GMCL1P1 / Fold change vs veh, GMCL1 /// GMCL1P1 / RFU, AEBP2 / Fold change vs veh, AEBP2 / RFU, SNHG1 /// SNORD22 /// SNORD25 /// SNORD26 /// SNORD27 /// SNORD28 /// SNORD29 /// SNORD31 / Fold change vs veh, SNHG1 /// SNORD22 /// SNORD25 /// SNORD26 /// SNORD27 /// SNORD28 /// SNORD29 /// SNORD31 / Fold change (Aza/veh), C12orf56 (ProbeSet 11735607_a_at) / Fold change (ACY-1035/veh), C12orf56 (ProbeSet 11735607_a_at) / Fold change (Aza/veh), FGFR1OP (ProbeSet 11751329_s_at) / Fold change (ACY-1035/veh), FGFR1OP (ProbeSet 11751329_s_at) / Fold change (Aza/veh), VPS36 (ProbeSet 11739960_a_at) / Fold change (ACY-1035/veh), VPS36 (ProbeSet 11739960_a_at) / RFU SYPL1 (11715823_x_at) / Fold change /veh SYPL1 (11715823_x_at) / RFU IGFBP7 (11715501_s_at) / Fold change /veh IGFBP7 (11715501_s_at) / RFU REEP3 (11722064_at) / Fold change /veh REEP3 (11722064_at) / RFU IGLL1 (11728026_x_at) / Fold change /veh IGLL1 (11728026_x_at): dose or concentration left out as unconfirmed
Conditions: MV-4-11 cells, 48 hours

Q: With `Nc1ccc(-c2cccs2)cc1NC(=O)c1ccc2c(c1)cc(C1CC1)n2CCN1CCOCC1` [ACY-1035] as the compound, how does the “RFU FAM211A (11726209_a_at)” value read?
A: Its value is 5.89 RFU.
